Data: article PMC12428754, “Testing Strategies for Metabolite-Mediated Neurotoxicity” (International Journal of Molecular Sciences, 2025)

Experiments:
[1] = for metabolite formation over time: samples every 30 min for 2 h
Method: Parent compounds were incubated at final concentrations of either (a) 5 µM or (b) 50 µM (for chlorfenapyr) with pooled human liver microsomes (HLM; mixed gender, n = 150; BioIVT; West Sussex, UK) at corresponding protein concentrations of (a) 0.52 mg/mL or (b) 5.2 mg/mL. Incubations were performed in the absence or presence of NADPH at final concentrations of (a) 1 mM or (b) 10 mM, respectively, using a thermostated orbital shaker at 37 °C and 150 rpm. Reactions were terminated at designated time points by the addition of acetonitrile/methanol (3:1, v/v). Samples were then centrifuged at 10,000× g for 10 min, and the resulting supernatants were analysed by LC-MS/MS.
All analytes were measured using an Acquity UPLC H-Class system coupled to a Xevo TQ-S micro mass spectrometer (Waters). Chromatographic separation was performed on an Acquity UPLC BEH C18 column (2.1 × 50 mm, 1.7 µm) with a mobile phase consisting of 0.1% formic acid in water (A) and acetonitrile (B). Unless otherwise stated, the column was maintained at 30 °C and operated at a flow rate of 0.4 mL/min. The standard gradient was 95% A from 0 to 1.0 min, decreased to 2% A by 1.5 min, held until 4.0 min, returned to 95% A at 4.3 min, and held until 5.0 min. […] The mass spectrometer operated in electrospray ionisation (ESI) mode. Compound-specific MRM transitions, cone voltages, and collision energies for all analytes are listed in Supplementary Table S2.
Int. J. Mol. Sci. 2025, 26, x FOR PEER REVIEW 3 of 5
Supplementary Figure S3: Quantification of specific metabolite formation from selected parent/metabolite pairs in a human liver microsomes (HLM) assay. Parent compounds (PAR) were incubated at a concentration of 5 µM (50 µM for chlorfenapyr) with HLM in the absence (dashed line, open symbols) or presence of NADPH (solid lines, closed symbols). Samples were taken every 30 min for 2 h (+NADPH) or at 2 h only (- NADPH). The remaining fraction of the PAR was quantified for each sample. Additionally, one key metabolite (MET) was measured. Its amount is expressed as fraction of PAR converted to MET, assuming an equimolar PAR to MET reaction, 100 % indicates a complete conversion. The middle-dashed line indicates a metabolite formation of at least 10% of PAR. Data are means of two measurements n.d. = not detected.
(1 picture or pasted object on this page, not shown here)

[2] = test system: LUHMES cells; conditions: rat liver S9 50 µg/mL in testing module, 2 h preincubation, RFP-LUHMES; toxicity increased with NADPH
Method: Figure 4 A strategy to incorporate metabolic competence into in vitro DNT testing methods. (A) A schematic overview of a sequential metabolism and testing approach. The “metabolisation module” uses hepatic post-mitochondrial fractions (S9) to generate metabolite mixtures in the presence or absence of cofactors (NADPH, glucose-6-phosphate, MgCl2). These metabolite mixtures are tested in the “testing module” in a concentration-dependent manner after serial pre-dilutions. Metabolite mixtures are added as a fraction of 10% to the media volume of the “testing module”. The testing module may be a cell-based neurotoxicity (NT) or developmental neurotoxicity (DNT) assay, such as the neurite outgrowth or migration assay. Here, the Mito-Met neurite outgrowth assay, as in Figure 1, was used. […] The curves represent data from three independent experiments and were fitted using a four-parameter Hill function. […] The data represent three independent experiments. The indicated concentrations are “testing module” concentrations.
To further evaluate our modular pre-activation strategy for identifying metabolite-mediated hazard, we tested a broader panel of compounds. For each compound (parent), a single concentration was used in the metabolisation module. The metabolite mixtures were generated in the absence or presence of NADPH. These metabolite mixtures were serially diluted and assessed using the MitoMet neurite outgrowth assay. As a measure of potency, EC25 values were determined, and potency ratios were calculated to compare the effects of NADPH-dependent versus NADPH-independent metabolism.
Figure 5 The effect of NADPH-dependent hepatic metabolism on the DNT of selected compounds. (A) A strategy scheme to assess the effect of metabolic enzymes on the outcome of cell-based DNT assays. Metabolite mixtures are generated using the NADPH-(in)dependent metabolic activity of S9. NADPH-independent metabolism is shown in green (light grey). NADPH-dependent metabolism is shown in red (dark grey). […] (B–F) The concentration-dependent effect of metabolite mixtures on neurite outgrowth was measured as in Figure 1, with the following modifications: red-fluorescent-protein (RFP)-expressing LUHMES cells were used. As the assay endpoint, the RFP fluorescence of neurites was used instead of calcein staining. The curves represent data from three independent experiments and were fitted using a four-parameter Hill function. From this, an EC25 was calculated. Bold numbers indicate the fold changes between EC25 values of the NADPH-(in)dependent metabolite mixtures, with the direction of the arrow reflecting the shift in sensitivity. Note that the x-axes indicate nominal concentrations of parent compounds. […] Similar images were used for neurite quantification. The right image (red frame) of the pairs was obtained with NADPH. The black arrowheads above the curves indicate the experimental conditions used to record images. The scale bar in orange corresponds to 50 µm.
The MitoMet neurite outgrowth assay was performed as previously described. In brief, all cell culture dishes and flasks were pre-coated with 50 μg/mL poly-l-ornithine (PLO) and 1 μg/mL fibronectin. Proliferating LUHMES cells were maintained in AdvDMEM/F12 containing L-glutamine (2 mM), N2 supplement (1x), and FGF (40 ng/mL). For pre-differentiation, the cells were replated at a density of 46,000 cells/cm^2 one day prior to the induction of differentiation (defined as the day of differentiation, Day −1). Differentiation was initiated by exchanging the culture medium for AdvDMEM/F12 supplemented with L-glutamine (2 mM), N2 supplement (1x), dibutyryl-cAMP (1 mM), tetracycline (1 µg/mL), and GDNF (2 ng/mL). After two days of differentiation (Day 2), the cells were replated (100,000 cells/cm^2) into 96-well plates.

[3] = human liver microsomes, listed under the metabolite

| SMILES | extent of metabolite formation ([1]; human liver microsomes, result in words) | metabolite formation over time [1, 3] | fold change between EC25 values of NADPH-independent and NADPH-dependent metabolite mixtures (toxification) [2] | cofactor (NADPH) dependence of metabolite formation ([1]; human liver microsomes ± NADPH, result in words) | conversion rate of parent to metabolite ([1]; human liver microsomes, up to 2 h, listed under the metabolite) |
| --- | --- | --- | --- | --- | --- |
| O=C(c1ccccc1)c1ccc(O)cc1 [4-Hydroxybenzophenone] | only trace amounts | time-dependent increase in metabolite formation |  |  |  |
| CN(c1c(Br)cc(Br)cc1Br)c1c([N+](=O)[O-])cc([N+](=O)[O-])cc1C(F)(F)F [Bromethalin] |  |  | 8 x |  |  |
| CCOCn1c(-c2ccc(Cl)cc2)c(C#N)c(Br)c1C(F)(F)F [Chlorfenapyr] |  |  | > 6 x |  |  |
| N#Cc1c(-c2ccc(Cl)cc2)[nH]c(C(F)(F)F)c1Br [Tralopyril] |  | time-dependent increase in metabolite formation |  | clearly dependent on NADPH | approximately 10% |
